Results published in patent US9475783B2, “Antimicrobial agents” (Rutgers, the State University of New Jersey, priority 2012, dated 2016).
In brackets after ≈: the same amount, converted by molar mass.

Columns and labels:
MSSA = test: Test A antibacterial assay, broth microdilution MIC; assay type: cell-based; conditions: Staphylococcus aureus, growth read after 24 to 48 hours at OD 600 nm
Procedure: Test A. Antibacterial Assay. Antibacterial activity can be determined as per Clinical and Laboratory Standards Institute (CLSI) guidelines using a broth microdilution assay in which log-phase bacteria are grown at 37° C. in appropriate medium containing two-fold serial dilutions of a compound to yield final concentrations ranging from 256 to 0.06 μg/mL. For determination of minimal inhibitory concentration (MIC) values, bacterial growth is monitored after 24 to 48 hours by measuring optical density at 600 nm.

[1] = Test D formulation of test compounds (solubility in vehicles); assay type: physicochemical; conditions: for concentration readily formulated: 10 mM solutions of citrate, methane sulfonate, p-toluene sulphonate, phosphoric acid, and tartaric acid
Procedure: Test D. Formulation of Test Compounds.
The literature vehicle reported for formulation of 5-chloro-2-(2,4-difluoro-3-aminocarbonylphenoxy)methylpyridylthiazole for i.v. administration consists of 20% DMA, 40% polyethylene glycol and 40% saline. […] Mice that were treated 15 minutes later with a second injection consisting of 150 μl of this vehicle died. In addition, concentrations of 5-chloro-2-(2,4-difluoro-3-aminocarbonylphenoxy)methylpyridylthiazole at or above 2.2 mg/ml in this vehicle were not completely dissolved and existed as a suspension (in a 28 g mouse this would be 15.7 mg/kg). A number of other formulations with 5-chloro-2-(2,4-difluoro-3-aminocarbonylphenoxy)methyl […] were tried, such as 20% DMA, 40% proplyeneglycol in 8% Cremophor-EL. […] Because of the limited solubility and the absence of a suitable vehicle, the literature study where it was reported that a 30 mg/kg dose of 5-chloro-2-(2,4-difluoro-3-aminocarbonylphenoxy)methylpyridylthiazole was delivered to mice in a single injection could not be repeated. […] In some instances the addition of 10-30% propylene glycocol did allow for greater retention of solubility of the test compounds. Example 4 was also found to formulate well at a 2.0 mg/ml concentration in 10 mM malic acid with 20% propylene glycol and with 10 mM p-toluenesulphonate alone. Example 6 did formulate well in 10 mM citrate alone at a concentration of 2.0 mg/ml. […] The ability of mice to tolerate this vehicle did allow for multiple dosing in the assessment of Example 6 in vivo and to actually deliver higher doses of the Example 6 because of the compatibility of a predominately aqueous vehicle.

[2] = system: Bacillus subtilis FG347 bacteria; test: Test C FtsZ Z-ring assay (GFP-ZapA fluorescence microscopy); assay type: cell-based; conditions: compound at 3 μg/mL
Procedure: Test C. FtsZ Z-Ring Assay.
The impact of a compound on FtsZ Z-ring formation can be determined using a strain of Bacillus subtilis (FG347) that expresses a green fluorescent protein (GFP)-ZapA fusion protein upon induction with xylose. ZapA is known to associate with FtsZ Z-rings in B. subtilis and, thus, serves as a marker for Z-ring formation. In this assay, log-phase FG347 bacteria are treated with differing concentrations of compound for time periods ranging from 1 to 6 hours. At each time point, aliquots are taken from each culture and then viewed with a fluorescence microscope.
Examples 4 and 6-8 were evaluated for their impact on the polymerization of Staphylococcus aureus FtsZ. […] In addition, Example 5 and 7 were also examined for their impact on FtsZ Z-ring formation in Bacillus subtilis FG347 bacteria. […] These collective results highlight the compounds of the invention as FtsZ-targeting antibacterial agents.

MSSA (S. aureus) = test: Test E in vivo efficacy, murine septicemia model of staphylococcal infection; conditions: for mice surviving the infection / mice: i.v. treatment
Procedure: Test E. In Vivo Efficacy in the Mouse Peritonitis or Mouse Septicemia Model.
Assessment of in vivo efficacy was performed using femal Swiss Webster mice (obtained from Taconic Farms, Germantown, Pa.) employing a murine septicemia model of staphylococcal infection. For bioassays examining efficacy against MSSA, each mouse was inoculated intraperitoneally with 500 μl of an inoculum containing 1.0×10^8 CFU per ml of S. aureus. All of the in vivo efficacy studies include a negative control group of infected mice treated intravenously either with vehicle alone (6 mice) or untreated (6 mice), as well as a positive control groups of infected mice treated with 200 ul of […] of vancomycin administered intravenously (4 mice) and a second control group using 2.0 mg/ml of oxacillin (4 mice). After the mice were infected, groups of six mice are treated by tail vein injection with 300 ul of a solution containing 2.0 mg of Example 6 in 10 mM citrate. Mice received four doses Example 6 administered with a 15 minute interval. Control mice are treated with vancomycin qd, oxacillin b.i.d, or vehicle alone. […] Animals are given food and water ad libitum. Survival within each experimental group is monitored over a 24 hout time period. Monitoring of the mice began 4 hours after the start of experiment. All of the effective mice treated with Example 6 survived the infection (5/5, 100% survival). All of the oxacillin-treated (4/4) and vancomycin-treated mice (4/4) survived the infection. All of the vehicle controls died within 12 hours, with 0/6 or 0% survival. Among the infected mice that receive no treatment, only 1/6 survived (16.7% survival).

[3] = MSSA-infected mice, 24 h monitoring

Row | SMILES | MIC (MSSA) [µg/mL] | also measured
1 | CN(C)/C=N/C(=O)c1c(F)ccc(OCc2nc3cc(Cl)cnc3s2)c1F [Example 5] | 0.25 (≈ 0.609 µM) | bacterial morphology induced [2]: elongated, filamentous morphology; impact on FtsZ Z-ring formation [2]: inhibit FtsZ Z-ring formation
2 | CN(C)CNC(=O)c1c(F)ccc(OCc2nc3cc(Cl)cnc3s2)c1F [Example 6] | 0.25 (≈ 0.606 µM) | concentration formulated well ([1]; 10 mM citrate alone): 2000 µg/mL; concentration readily formulated [1]: 2000 µg/mL; survival (MSSA (S. aureus); MSSA-infected mice, i.v. tail vein, four doses at 15 minute interval in 10 mM citrate, 24 h monitoring): 100%; mice surviving the infection / mice (MSSA (S. aureus); [3]): 5/5; death during the course of treatment (MSSA (S. aureus); group of six mice, 300 ul i.v. of 2.0 mg solution in 10 mM citrate, four doses): One of the mice treated with Example 6 died during the course of treatment
3 | CN(CNC(=O)c1c(F)ccc(OCc2nc3cc(Cl)ccc3s2)c1F)Cc1ccc(C(F)(F)F)cc1 [Example 12] | 0.5 (≈ 0.899 µM) | 
4 | CC1CCN(CNC(=O)c2c(F)ccc(OCc3nc4cc(Cl)ccc4s3)c2F)CC1 [Example 18] | 0.25 (≈ 0.537 µM) | 
5 | CCN(CC)CNC(=O)c1c(F)ccc(OC(C)c2nc(C)c(-c3ccc(C(C)(C)C)cc3)s2)c1F (stereo not shown) [Example 19] | 1 (≈ 1.94 µM) | 
6 | Cc1ccc(CN(C)CNC(=O)c2c(F)ccc(OC(C)c3nc(C)c(-c4ccc(C(C)(C)C)cc4)s3)c2F)cc1 (stereo not shown) [Example 20] | 1 (≈ 1.73 µM) | 
7 | Cc1nc(COc2ccc(F)c(C(=O)NCN3CCC(C)CC3)c2F)sc1-c1ccc(C(C)(C)C)cc1 [Example 21] | 0.5 (≈ 0.948 µM) | 
8 | Cc1ccc(CN(C)CNC(=O)c2c(F)ccc(OCc3nc(-c4ccc(C(F)(F)F)cc4)c(Br)o3)c2F)cc1 [Example 23] | 0.25 (≈ 0.4 µM) | 
9 | Cc1ccc(CN(C)CNC(=O)c2c(F)ccc(OCc3nc4cc(Cl)ccc4o3)c2F)cc1 [Example 25] | 16 (≈ 32.9 µM) | 
10 | COc1ccc(CN(C)CNC(=O)c2c(F)ccc(OCc3nc4cc(Cl)ccc4o3)c2F)cc1 [Example 26] | 16 (≈ 31.9 µM) | 
11 | O=C(NC(c1ccccc1)N1CCOCC1)c1c(F)ccc(OCc2nc3cc(Cl)ccc3s2)c1F (stereo not shown) [Example 28] | 0.25 (≈ 0.472 µM) | 
12 | O=C(NC(c1cccc(Br)c1)N1CCOCC1)c1c(F)ccc(OCc2nc3cc(Cl)ccc3s2)c1F (stereo not shown) [Example 30] | 0.5 (≈ 0.821 µM) | 
13 | CN1CCN(C(NC(=O)c2c(F)ccc(OCc3nc4cc(Cl)ccc4s3)c2F)c2cccc(Br)c2)CC1 (stereo not shown) [Example 31] | 0.5 (≈ 0.804 µM) | 
14 | Cc1nc(COc2ccc(F)c(C(=O)NCN(C)C)c2F)sc1-c1ccc(C(C)(C)C)cc1 [Example 34] | 0.125 (≈ 0.264 µM) | 
15 | Cc1nc(COc2ccc(F)c(C(=O)NCN(C)Cc3ccc(C(F)(F)F)cc3)c2F)sc1-c1ccc(C(C)(C)C)cc1 [Example 35] | > 64 | 
16 | CN1CCN(C(NC(=O)c2c(F)ccc(OCc3nc4cc(Cl)ccc4s3)c2F)c2ccncc2)CC1 (stereo not shown) [Example 37] | 0.5 (≈ 0.919 µM) | 
17 | CN1CCN(C(NC(=O)c2c(F)ccc(OCc3nc4cc(Cl)ccc4s3)c2F)c2ccccc2)CC1 (stereo not shown) [Example 38] | 8 (≈ 14.7 µM) | 
18 | O=C(NCNCc1ccccc1)c1c(F)ccc(OCc2nc3cc(Cl)ccc3s2)c1F [Example 41] | 0.5 (≈ 1.06 µM) | 
19 | Cc1nc(COc2ccc(F)c(C(=O)NCN3CCC(C)CC3)c2F)sc1-c1ccc(C(F)(F)F)cc1 [Example 43] | 2 (≈ 3.71 µM) | 
20 | C/C(=N\C(=O)c1c(F)ccc(OCc2nc3cc(Cl)ccc3s2)c1F)N(C)C [Example 44] | 2 (≈ 4.72 µM) | 
21 | CN(C)/C=N/C(=O)c1c(F)ccc(O/C(=C/N(C)C)c2nc3cc(Cl)ccc3s2)c1F [Example 45] | 32 (≈ 68.8 µM) | 
22 | Cc1onc(-c2ccccc2)c1C(=O)N[C@@H]1C(=O)N2[C@@H]1SC(C)(C)[C@@H]2C(=O)O [oxacillin, reference compound] |  | mice surviving the infection / mice (MSSA (S. aureus); [3]): 4/4
23 | CN[C@H](CC(C)C)C(=O)N[C@H]1C(=O)N[C@@H](CC(N)=O)C(=O)N[C@H]2C(=O)N[C@H]3C(=O)N[C@H](C(=O)N[C@H](C(=O)O)c4cc(O)cc(O)c4-c4cc3ccc4O)[C@H](O)c3ccc(c(Cl)c3)Oc3cc2cc(c3O[C@@H]2O[C@H](CO)[C@@H](O)[C@H](O)[C@H]2O[C@H]2C[C@](C)(N)[C@H](O)[C@H](C)O2)Oc2ccc(cc2Cl)[C@H]1O [vancomycin, reference compound] |  | mice surviving the infection / mice (MSSA (S. aureus); [3]): 4/4

The next lines start with results.

Row | MIC (MSSA) [µg/mL] | SMILES | also measured
24 | > 64 | Cc1nc(COc2ccc(F)c(C(=O)NCN(C)C)c2F)sc1-c1ccncc1 [Example 1] | 
25 | > 64 | O=C(NCn1ccnc1)c1c(F)ccc(OCc2nc3cc(Cl)ccc3s2)c1F [Example 2] | 
26 | < 0.125 | CN(C)/C=N/C(=O)c1c(F)ccc(OCc2nc3cc(Cl)ccc3s2)c1F [Example 3] | 
27 | 0.125 (≈ 0.304 µM) | CN(C)CNC(=O)c1c(F)ccc(OCc2nc3cc(Cl)ccc3s2)c1F [Example 4] | concentration formulated well ([1]; 10 mM malic acid with 20% propylene glycol): 2000 µg/mL; concentration formulated well ([1]; 10 mM p-toluenesulphonate alone): 2000 µg/mL; concentration readily formulated [1]: 2000 µg/mL
28 | 2 (≈ 4.27 µM) | CN1CCN(CNC(=O)c2c(F)ccc(OCc3nc4cc(Cl)cnc4s3)c2F)CC1 [Example 8] | 
29 | 0.125 (≈ 0.284 µM) | CCN(CC)CNC(=O)c1c(F)ccc(OCc2nc3cc(Cl)ccc3s2)c1F [Example 9] | 
30 | 0.25 (≈ 0.483 µM) | COc1ccc(CN(C)CNC(=O)c2c(F)ccc(OCc3nc4cc(Cl)ccc4s3)c2F)cc1 [Example 10] | 
31 | 1 (≈ 1.93 µM) | COc1ccc(CN(C)CNC(=O)c2c(F)ccc(OCc3nc4cc(Cl)cnc4s3)c2F)cc1 [Example 11] | 
32 | 1 (≈ 1.8 µM) | CN(CNC(=O)c1c(F)ccc(OCc2nc3cc(Cl)cnc3s2)c1F)Cc1ccc(C(F)(F)F)cc1 [Example 13] | 
33 | 0.25 (≈ 0.498 µM) | Cc1ccc(CN(C)CNC(=O)c2c(F)ccc(OCc3nc4cc(Cl)ccc4s3)c2F)cc1 [Example 14] | 
34 | 0.5 (≈ 0.994 µM) | Cc1ccc(CN(C)CNC(=O)c2c(F)ccc(OCc3nc4cc(Cl)cnc4s3)c2F)cc1 [Example 15] | 
35 | 0.5 (≈ 1.13 µM) | CCN(CC)CNC(=O)c1c(F)ccc(OCc2nc3cc(Cl)cnc3s2)c1F [Example 16] | 
36 | 0.5 (≈ 1.07 µM) | CC1CCN(CNC(=O)c2c(F)ccc(OCc3nc4cc(Cl)cnc4s3)c2F)CC1 [Example 17] | 
37 | 0.125 (≈ 0.222 µM) | CCN(CC)CNC(=O)c1c(F)ccc(OCc2nc(-c3ccc(C(F)(F)F)cc3)c(Br)o2)c1F [Example 22] | 
38 | 8 (≈ 18.9 µM) | CCN(CC)CNC(=O)c1c(F)ccc(OCc2nc3cc(Cl)ccc3o2)c1F [Example 24] | 
39 | 0.125 (≈ 0.314 µM) | CNCNC(=O)c1c(F)ccc(OCc2nc3cc(Cl)ccc3s2)c1F [Example 27] | 
40 | 1 (≈ 1.88 µM) | O=C(NC(c1ccccc1)N1CCOCC1)c1c(F)ccc(OCc2nc3cc(Cl)cnc3s2)c1F (stereo not shown) [Example 29] | 
41 | 0.5 (≈ 0.919 µM) | CN1CCN(C(NC(=O)c2c(F)ccc(OCc3nc4cc(Cl)cnc4s3)c2F)c2ccccc2)CC1 (stereo not shown) [Example 32] | 
42 | 0.25 (≈ 0.574 µM) | C#CCN(C)CNC(=O)c1c(F)ccc(OCc2nc3cc(Cl)ccc3s2)c1F [Example 39] | 
43 | 0.5 (≈ 1.14 µM) | CC(C)(C)NCNC(=O)c1c(F)ccc(OCc2nc3cc(Cl)ccc3s2)c1F [Example 40] | 
44 | 2 (≈ 4.38 µM) | CCN(CC)CNC(=O)c1c(Cl)ccc(OCc2nc3cc(Cl)ccc3s2)c1F [Example 42] | 
45 | 8 (≈ 23.4 µM) | Cc1csc(COc2ccc(F)c(C(=O)NCN(C)C)c2F)n1 [Example 46] | 
